Data set [1] in a line: Half life in rat at 10 mg/kg, po. Format: ADME, organism-based. The conditions noted are these: in vivo.
Data set [2] can be described thus: Cmax in rat at 10 mg/kg, po. The format is ADME, organism-based. Further details: dose 10 mg/kg, route oral. The conditions noted are these: in vivo.
Data set [3] is described as follows: Half life in human liver microsomes. Format: ADME, Microsome.

The compound `[2H]c1c([2H])c([2H])c(C2=C(c3ccc(S(C)(=O)=O)cc3)COC2=O)c([2H])c1[2H]` gave a half-life in data set [1] of 4.29 h. The compound further yielded a Cmax in data set [2] of 4180 ng/mL.
In data set [3], `[2H]C([2H])([2H])c1nnc(C(C)C)n1[C@@H]1C[C@H]2CC[C@@H](C1)N2CC[C@H](NC(=O)C1CCC(F)(F)CC1)c1ccccc1` showed a half-life of 0.758 h.
In data set [3], `[2H]C([2H])([2H])c1nnc(C(C)C)n1[C@@H]1C[C@H]2CC[C@@H](C1)N2C([2H])([2H])C[C@H](NC(=O)C1CCC(F)(F)CC1)c1ccccc1` gave a half-life of 2.42 h.
As to `Cc1nnc(C(C)C)n1[C@@H]1C[C@H]2CC[C@@H](C1)N2CC[C@H](NC(=O)C1CCC(F)(F)CC1)c1ccccc1` [MARAVIROC], in data set [3], the half-life was determined as 1.62 h.
In data set [1], `CS(=O)(=O)c1ccc(C2=C(c3ccccc3)C(=O)OC2)cc1` [ROFECOXIB] gave a half-life of 4.18 h. The same compound displayed a Cmax in data set [2] of 2420 ng/mL.
